Source: patent US6737428B2, “BIS hydrochloride monohydrate salt of RSV fusion inhibitor” (Bristol-Myers Squibb Company, priority 2001, dated 2004)
Read-outs that look alike come from different tables or passages of the source. Blank lines part the entries; values can stand above or below the compound they belong to.

Tests used:
[1] = system: respiratory syncytial virus Long strain; assay: Antiviral activity against respiratory syncytial virus in HEp-2 cells (MTT cell protection); assay type: cell-based; settings: for EC50: human respiratory syncytial virus, read-out: EC50 (concentration that produces 50% cell protection)
Procedure: The antiviral activity of these compounds against respiratory syncytial virus was determined in HEp-2 (ATCC CCL 23) cells that were seeded in 96 well microtiter plates at 1.5×10^4 cells/100 μL/well in DMEM (Dulbecco's Modified Eagle's Medium) supplemented with penicillin, streptomycin, glutamine, and 10% fetal bovine serum. The cells were incubated overnight at 37° C., the culture medium was removed, and cells were infected (100 μL volume in medium containing 2% fetal bovine serum) with respiratory syncytial virus Long strain at 5000 plaque forming units/mL. The compounds, 100 μL at appropriate dilution, were added to the cells 1 hour post infection. After incubation for 4 days at 37° C., the plates were stained with MTT solution (3-[4,5-dimethlythiazol-2-yl]-2,5-diphenyltetrazolium bromide) and incubated for 4 hours at 37° C. The media was aspirated from the cells and 100 μL/well of acidified isopropanol (per liter: 900 mL isopropanol, 100 mL Triton X100, and 4 mL conc. HCl) was added. Plates were incubated for 15 minutes at room temperature with shaking, and an optical density (OD 540) reading at 540 nanometer (nm) was obtained. The optical density reading is proportional to the number of viable cells. The increase in the number of viable cells reflects the protective, antiviral activity of the compound. Assays comparing MTT staining in uninfected cells containing compound with uninfected cells in the absence of compound provide a measure of cellular toxicity.
The antiviral activity of compounds, designated as EC50, is presented as a concentration that produces 50% cell protection in the assay. […]

[2] = acid used as salt former; cited from earlier work

EC50 ([1]; 96 h, HEp-2 cells, RSV Long strain, 4 days, MTT): 3000 nM
Structure (SMILES): NC(=O)c1ncn([C@@H]2O[C@H](CO)[C@@H](O)[C@H]2O)n1 [Ribavirin]
cell protection ([1]; at 2.5 μg/mL (corresponding to 10.2 μM)): 100%

Structure (SMILES): O=c1n(Cc2nc3ccccc3n2CCCCO)c2cnccc2n1C1CC1 [compound II]
EC50 ([1]; HEp-2, 96 h): 60 nM

Structure (SMILES): O=C(O)/C=C/C(=O)O [fumaric acid]
first pKa [2]: ~3

Structure (SMILES): O=C(O)/C=C\C(=O)O [maleic acid]
first pKa [2]: ~2
